Laboratory results: PubChem BioAssay (NCI)
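Five compound concentrations were applied to cells in 96-well plates for 48 hours; endpoints were derived by simple linear interpolation of the resulting dose-response curve. Abbreviation: GI50, concentration required for 50% inhibition of growth. At the TGI there is no net growth.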

Tests used:
Assay in all cases: NCI-60 cell line screen, 48 h
MDA-MB-435 = tested on: MDA-MB-435
SN12C renal = tested on: SN12C renal
NCI/ADR-RES ovarian = tested on: NCI/ADR-RES ovarian
UO-31 renal = tested on: UO-31 renal
SK-OV-3 ovarian = tested on: SK-OV-3 ovarian
COLO 205 colon = tested on: COLO 205 colon
OVCAR-8 ovarian = tested on: OVCAR-8 ovarian
HCC-2998 colon = tested on: HCC-2998 colon
MALME-3M melanoma = tested on: MALME-3M melanoma
HCT-116 colon = tested on: HCT-116 colon
OVCAR-5 ovarian = tested on: OVCAR-5 ovarian
M14 melanoma = tested on: M14 melanoma
HS 578T breast = tested on: HS 578T breast
A549 NSCLC = tested on: A549 NSCLC
786-0 renal = tested on: 786-0 renal
U251 CNS = tested on: U251 CNS
HOP-92 NSCLC = tested on: HOP-92 NSCLC
TK-10 renal = tested on: TK-10 renal
SK-MEL-5 melanoma = tested on: SK-MEL-5 melanoma
SF-268 CNS = tested on: SF-268 CNS
SW-620 colon = tested on: SW-620 colon
DU-145 prostate = tested on: DU-145 prostate
NCI-H226 lung = tested on: NCI-H226 lung
MCF7 breast = tested on: MCF7 breast
A498 renal = tested on: A498 renal
SNB-75 CNS = tested on: SNB-75 CNS
ACHN renal = tested on: ACHN renal
SNB-19 CNS = tested on: SNB-19 CNS
RPMI-8226 leukemia = tested on: RPMI-8226 leukemia
SF-539 CNS = tested on: SF-539 CNS
CCRF-CEM leukemia = tested on: CCRF-CEM leukemia
HCT-15 colon = tested on: HCT-15 colon
HOP-62 NSCLC = tested on: HOP-62 NSCLC
OVCAR-3 ovarian = tested on: OVCAR-3 ovarian
MOLT-4 leukemia = tested on: MOLT-4 leukemia
SR leukemia = tested on: SR leukemia
MDA-MB-231 breast = tested on: MDA-MB-231 breast
SK-MEL-2 melanoma = tested on: SK-MEL-2 melanoma
SK-MEL-28 melanoma = tested on: SK-MEL-28 melanoma
OVCAR-4 ovarian = tested on: OVCAR-4 ovarian
T-47D breast = tested on: T-47D breast
K-562 leukemia = tested on: K-562 leukemia
NCI-H23 lung = tested on: NCI-H23 lung
IGROV1 ovarian = tested on: IGROV1 ovarian
UACC-62 melanoma = tested on: UACC-62 melanoma
NCI-H522 lung = tested on: NCI-H522 lung
SF-295 CNS = tested on: SF-295 CNS
PC-3 prostate = tested on: PC-3 prostate
NCI-H460 lung = tested on: NCI-H460 lung
CAKI-1 renal = tested on: CAKI-1 renal
BT-549 breast = tested on: BT-549 breast
RXF 393 renal = tested on: RXF 393 renal
HT29 colon = tested on: HT29 colon
HL-60(TB) leukemia = tested on: HL-60(TB) leukemia
UACC-257 melanoma = tested on: UACC-257 melanoma
KM12 colon = tested on: KM12 colon

Compound: COc1ccc(C2CC(=O)Nc3c2c(C)nn3-c2nc3ccccc3[nH]2)cc1 (configuration not stated)
- GI50 (MDA-MB-435): 2550 nM
- TGI (MDA-MB-435): 6.84 µM
- GI50 (SN12C renal): 3.28 µM
- TGI (SN12C renal): > 53.7 µM
- GI50 (NCI/ADR-RES ovarian): 5.61 µM
- TGI (NCI/ADR-RES ovarian): > 100 µM
- GI50 (UO-31 renal): 3.19 µM
- TGI (UO-31 renal): 15.8 µM
- GI50 (SK-OV-3 ovarian): 3.23 µM
- TGI (SK-OV-3 ovarian): 7.83 µM
- GI50 (COLO 205 colon): 3.59 µM
- TGI (COLO 205 colon): 14.7 µM
- GI50 (OVCAR-8 ovarian): 3.76 µM
- TGI (OVCAR-8 ovarian): > 100 µM
- GI50 (HCC-2998 colon): 5.67 µM
- TGI (HCC-2998 colon): > 58.5 µM
- GI50 (MALME-3M melanoma): 2220 nM
- TGI (MALME-3M melanoma): 8.04 µM
- GI50 (HCT-116 colon): 2120 nM
- TGI (HCT-116 colon): 4.38 µM
- GI50 (OVCAR-5 ovarian): 4.52 µM
- TGI (OVCAR-5 ovarian): > 70.1 µM
- GI50 (M14 melanoma): 2540 nM
- TGI (M14 melanoma): 7.12 µM
- GI50 (HS 578T breast): 3.19 µM
- TGI (HS 578T breast): 17.7 µM
- GI50 (A549 NSCLC): 3.04 µM
- TGI (A549 NSCLC): 15.1 µM
- GI50 (786-0 renal): 3.82 µM
- TGI (786-0 renal): > 33.3 µM
- GI50 (U251 CNS): 2560 nM
- TGI (U251 CNS): 7.04 µM
- GI50 (HOP-92 NSCLC): 2340 nM
- TGI (HOP-92 NSCLC): 6.72 µM
- GI50 (TK-10 renal): 4.08 µM
- TGI (TK-10 renal): > 38.9 µM
- GI50 (SK-MEL-5 melanoma): 1820 nM
- TGI (SK-MEL-5 melanoma): 3.71 µM
- GI50 (SF-268 CNS): 3.86 µM
- TGI (SF-268 CNS): 97.7 µM
- GI50 (SW-620 colon): 3.33 µM
- TGI (SW-620 colon): 20.6 µM
- GI50 (DU-145 prostate): 3.64 µM
- TGI (DU-145 prostate): 16.8 µM
- GI50 (NCI-H226 lung): 2580 nM
- TGI (NCI-H226 lung): 7.9 µM
- GI50 (MCF7 breast): 3.11 µM
- TGI (MCF7 breast): > 34 µM
- GI50 (A498 renal): 1890 nM
- TGI (A498 renal): 5.46 µM
- GI50 (SNB-75 CNS): 2360 nM
- TGI (SNB-75 CNS): 9.12 µM
- GI50 (ACHN renal): 3.55 µM
- TGI (ACHN renal): > 57.4 µM
- GI50 (SNB-19 CNS): 4.72 µM
- TGI (SNB-19 CNS): > 100 µM
- GI50 (RPMI-8226 leukemia): 2410 nM
- TGI (RPMI-8226 leukemia): 5.48 µM
- GI50 (SF-539 CNS): 2160 nM
- TGI (SF-539 CNS): 4.94 µM
- GI50 (CCRF-CEM leukemia): 2110 nM
- TGI (CCRF-CEM leukemia): > 27.9 µM
- GI50 (HCT-15 colon): 3.49 µM
- TGI (HCT-15 colon): > 100 µM
- GI50 (HOP-62 NSCLC): 2560 nM
- TGI (HOP-62 NSCLC): 6.55 µM
- GI50 (OVCAR-3 ovarian): 2540 nM
- TGI (OVCAR-3 ovarian): 5.72 µM
- GI50 (MOLT-4 leukemia): 58.9 nM
- TGI (MOLT-4 leukemia): 326 nM
- GI50 (SR leukemia): 2960 nM
- TGI (SR leukemia): > 25.1 µM
- GI50 (MDA-MB-231 breast): 2250 nM
- TGI (MDA-MB-231 breast): 5.3 µM
- GI50 (SK-MEL-2 melanoma): 3.45 µM
- TGI (SK-MEL-2 melanoma): 9.43 µM
- GI50 (SK-MEL-28 melanoma): 3.92 µM
- TGI (SK-MEL-28 melanoma): > 55.9 µM
- GI50 (OVCAR-4 ovarian): 3.71 µM
- TGI (OVCAR-4 ovarian): > 59.1 µM
- GI50 (T-47D breast): 3.92 µM
- TGI (T-47D breast): > 41.9 µM
- GI50 (K-562 leukemia): 2900 nM
- TGI (K-562 leukemia): > 35.5 µM
- GI50 (NCI-H23 lung): 2570 nM
- TGI (NCI-H23 lung): 6.83 µM
- GI50 (IGROV1 ovarian): 2380 nM
- TGI (IGROV1 ovarian): 5.26 µM
- GI50 (UACC-62 melanoma): 1940 nM
- TGI (UACC-62 melanoma): 4.16 µM
- GI50 (NCI-H522 lung): 2670 nM
- TGI (NCI-H522 lung): 7.15 µM
- GI50 (SF-295 CNS): 1700 nM
- TGI (SF-295 CNS): 4.19 µM
- GI50 (PC-3 prostate): 3.21 µM
- TGI (PC-3 prostate): 48.9 µM
- GI50 (NCI-H460 lung): 2390 nM
- TGI (NCI-H460 lung): 5.89 µM
- GI50 (CAKI-1 renal): 2960 nM
- TGI (CAKI-1 renal): 9.12 µM
- GI50 (BT-549 breast): 3.33 µM
- TGI (BT-549 breast): 20 µM
- GI50 (RXF 393 renal): 2630 nM
- TGI (RXF 393 renal): 8.92 µM
- GI50 (HT29 colon): 3.47 µM
- TGI (HT29 colon): > 30.4 µM
- GI50 (HL-60(TB) leukemia): 3.13 µM
- TGI (HL-60(TB) leukemia): 9.83 µM
- GI50 (UACC-257 melanoma): 2650 nM
- TGI (UACC-257 melanoma): 8.21 µM
- GI50 (KM12 colon): 2720 nM
- TGI (KM12 colon): 7.09 µM
